Key:
[1] = tested on: invasive HCC cells (HLE and HLF); design: method as in PMID 29515105, PMID 26057634; conditions: in vitro and in ex vivo human HCC samples; ref [24, 25]; cited from earlier work
[2] = Plasma pharmacokinetics of Galunisertib after single oral dose (HPLC-FL); format: in vivo, mouse; conditions: for AUC(0-t) / Cmax / Tmax / half-life / k el: mouse, single oral dose, female CD-1 mice, plasma
Protocol: (§1) Firstly, we quantified the concentration of LY2157299 in plasma of female CD-1 mice by a liquid chromatographic method, in order to define the concentration for the therapeutic window. Therefore, the drug was administered orally and given in two formulations. Group 1 (15 mice) received Galunisertib as suspension (75 mg/kg) prepared by mixing Galunisertib with 1% Carboxymethylcellulose, 0.5% Sodium Lauryl Sulfate, 0.085% Povidone, followed by sonication in a water bath sonicator or with a probe sonicator until a fine suspension with a final concentration of 7.5 mg/mL was achieved. Group 2 (15 mice) received Galunisertib as solution (150 mg/kg solution) prepared by dissolving the drug in 10% of dimethylsulfoxide (DMSO), and then adding sequentially polyethylene glycol (PEG)400 (30%), ethanol (EtOH) (10%), saline (30%) and HCl 0.01 M (20%) at a final pH of ~6 under mixing to a final concentration of 15 mg/mL.
The volume of administration was 10mL/kg for single treatment. Physical appearance, behavior as well as general and local clinical signs of the mice were monitored throughout the experiment. […] At predefined time points (0.5, 1, 2, 4, 8 h after administration), the animals were deeply anesthetized by isoflurane followed by a complete retro-orbital bleeding. The blood was collected in heparinized tubes and centrifuged at 6000× g for 5–10 minutes within 15 minutes after collection. The plasma was transferred to tubes and stored at −20 °C until analysis.
To quantify the concentration of Galunisertib, plasma was measured by a HPLC/Fluorimetric (HPLC-FL) method.
The pharmacokinetic parameters (Kelim, T1/2, and Tmax.) represented as mean ± SD of three animals/time for both Galunisertib formulations were determined using the MKModel by Nick Holford software Version 4, (Biosoft, Ferguson, MO, USA) or equivalent pharmacokinetic programs (Table 4).

[3] = tested on: CD44 and THY1; design: method as in PMID 29515105, PMID 26057634; conditions: HLE and HLF cells in vitro; ref [24, 25]; cited from earlier work
[4] = tested on: HepG2-Luc cells; experiment: Orthotopic HCC model, intrahepatic HepG2-Luc cells in NOG mice, tumor growth by IVIS bioluminescence; format: in vivo, mouse; conditions: for Bioluminescence (average radiance, IVIS) vs vehicle (GP1): NOG mice, HepG2-Luc
Protocol: To evaluate in vivo the effect of Galunisertib (LY2157299) on tumor growth rate we used an orthotopic model: HCC was induced by intrahepatic injections of 1 × 10^6 HepG2-Luc cells in 7–8 weeks old, female NOG mice. The inoculated animals presented a clear engraftment of the liver cancer. The tumor growth was monitored weekly with IVIS Spectrum (PerkinElmer) through intraperitoneal administration of D-Luciferin (Sigma, 150 mg/10 mL/kg) until the end of the experiment.
Two weeks after the injection of HepG2-Luc cells, 45 mice were selected based on the bioluminescence signal and randomized into three groups of 15 animals. The first group (control group) was treated with 10 mL/kg of a […] vehicle solution (10% DMSO, 30% PEG400, 10% EtOH, 30% saline solution, 20% HCl 0.01 M, final pH 6.0). The second group (GP2) received 10 mL/kg Galunisertib solution via gastric probe (OS) and in the third group of mice (GP3) the drug was administered intravenously (IV) with 5 mL/kg Galunisertib encapsulated in polymeric nanocapsules. This nanoencapsulation was used to optimize the formulation in order to maximize therapeutic efficiency and minimize systemic toxicity. The nanocapsules were prepared from biocompatible and biodegradable polymers as described previously.
After sacrificing the animals, a complete necropsy was performed and documented by photos. Before sacrificing the animals, they were imaged by IVIS Spectrum to identify bioluminescent tissues for explantation.
Figure 4 Treatment of NOD/Shi-Scid/IL-2Rγ^null […] (NOG) mice with luciferin-labeled hepatocellular carcinoma (HCC) with vehicle or two Galunisertib preparations. (A). Bioluminescence images of NOG mice prior injected intrahepatically with HepG2-Luc cells at Day 23 and 44 after vehicle injection (GP1), or Galunisertib administration via gavage (GP2) or intravenous route (GP3). (B) Average Radiance (IVIS) versus time after tumor inoculation. Data were averaged over the animals which reached the end of experiment (GP1: n = 15; GP2: n = 14; GP3: n = 10).

[5] = tested on: HepG2 cells; design: method as in PMID 23826206; conditions: exogenous TGF-β1 in vitro, ref [22]; cited from earlier work
[6] = tested on: pancreatic ductal adenocarcinoma; design: method as in PMID 30866547; conditions: ref [17]; cited from earlier work
[7] = Appearance / solubility of Galunisertib in the dosing formulations; format: physicochemical
Protocol: as §1

[8] = tested on: SKIL and PMEPA1 mRNA; conditions: HCC tumor tissues; ref [26]; cited from earlier work
[9] = tested on: TGF-β1, TGF-β RI and TGF-β RII mRNA; experiment: qRT-PCR mRNA expression in tumor tissues of the orthotopic model; format: in vivo, mouse; conditions: for mRNA expression of TGF-βI, TGF-β RI and TGF-β RII levels vs controls: tumor tissues, qRT-PCR
Excerpt: No difference was found comparing the two Galunisertib formulations.

[10] = tested on: TGF-β1 SMAD2/3 pathway; design: method as in PMID 29957876; conditions: CC14-induced mice; ref [20]; cited from earlier work
[11] = tested on: CD133 and Vimentin; design: method as in PMID 29805610; conditions: ref [23]; cited from earlier work
[12] = tested on: TGF-β linked EMT transition; conditions: female BALB/C nude mice, subcutaneous Hg2 cells; ref [44]; cited from earlier work
[13] = tested on: SK-HEP1-Luc cells; design: method as in PMID 26549110; conditions: oral administration, female BALB/C nu/nu, orthotopic SK-HEP1-Luc; ref [45]; cited from earlier work

Cc1cccc(-c2nn3c(c2-c2ccnc4ccc(C(N)=O)cc24)CCC3)n1 [Galunisertib]
Colony formation, liver spheroids and invasive growth capacity [1]: decrease | Cmax and AUClast higher than the 75 mg/kg suspension ([2]; 150 mg/kg solution vs 75 mg/kg suspension, considering the dose correcting factor): 2.5 fold | AUC(0-t) ([2]; Solution (150 mg/kg)): 15500 ng·h/mL | Cmax ([2]; Solution (150 mg/kg)): 19000 ng/mL | Tmax ([2]; Solution (150 mg/kg)): 30 min | half-life ([2]; Solution (150 mg/kg)): 103 min | k el ([2]; Solution (150 mg/kg)): 0.000164 s⁻¹ | AUC(0-t) ([2]; Suspension (75mg/kg)): 3110 ng·h/mL | Cmax ([2]; Suspension (75mg/kg)): 3330 ng/mL | Tmax ([2]; Suspension (75mg/kg)): 30 min | half-life ([2]; Suspension (75mg/kg)): 84 min | k el ([2]; Suspension (75mg/kg)): 0.000136 s⁻¹ | Expression of CD44 and THY1 [3]: reducing the expression | Bioluminescence (average radiance, IVIS) vs vehicle (GP1) ([4]; GP2 (LY × OS): 10 mL/kg Galunisertib solution via gastric probe): no significant difference in bioluminescence | Bioluminescence (average radiance, IVIS) vs vehicle (GP1) ([4]; GP3 (LY × IV): 5 mL/kg Galunisertib encapsulated in polymeric nanocapsules, intravenous): no significant difference in bioluminescence | Effect on tumor regression or prevention of metastasis ([4]; treated groups (GP2 gavage, GP3 intravenous) vs control, treatment period Day 16–Day 44): no effect on tumor regression or prevention of metastasis | Effect on TGF-β1-induced changes (flat, larger cells; reduced E-cadherin in cell–cell contact) [5]: reversed | Effect on mast cell-mediated resistance to GEM/NAB (reduced apoptosis, TGF-β signaling, invasion) [6]: restored | Appearance / solubility in formulation ([7]; new formulation, 150 mg/kg solution: 10% DMSO, 30% PEG400, 10% EtOH, 30% saline, 20% HCl 0.01 M, pH ~6, 15 mg/mL): completely clear solution | Appearance / solubility in formulation ([7]; old formulation (75 mg/kg): 1% Carboxymethylcellulose, 0.5% Sodium Lauryl Sulfate, 0.085% Povidone, 7.5 mg/mL): only moderately soluble | SKIL and PMEPA1 mRNA expression [8]: strongly down-regulated | mRNA level of the drug target compared to controls treated with vehicle ([9]; orthotopic HepG2-Luc model, NOG mice): statistically significant reduction (p = 0.03) | mRNA expression of TGF-βI, TGF-β RI and TGF-β RII levels vs controls ([9]; mice treated with Galunisertib solution): significant (p < 0.05) down-regulation | mRNA expression of TGF-βI, TGF-β RI and TGF-β RII levels vs controls ([9]; mice treated with encapsulated Galunisertib): significant (p < 0.05) down-regulation

NC(=O)c1ccc(-c2nc(-c3ccc4c(c3)OCO4)c(-c3ccccn3)[nH]2)cc1 [SB431542]
Effect on liver fibrosis and TGF-β1 SMAD2/3 [10]: significantly attenuated | Expression of CD133 and Vimentin [11]: upregulated

C[S+]([O-])CCCCN=C=S (stereo not shown) [Sulforaphane]
Effect on TGF-β linked EMT transition [12]: Sulforaphane inhibits TGF-β linked EMT transition

Cc1cccc(-c2[nH]c(CNc3ccccc3F)nc2-c2ccc3ncnn3c2)n1 [EW-7197]
Effect on tumor growth [13]: ALK 5 inhibitor interferes with tumor growth

Reference: publication PMC6826694, “Validation of Hepatocellular Carcinoma Experimental Models for TGF-β Promoting Tumor Progression” (Cancers, 2019)
